Source: US6770661B2, “Aryl substituted pyridines and their use” (Euro-Celtique S.A., priority 2001, dated 2004)

Biological target: rBIIa/beta 1 sodium channels expressed in Xenopus oocytes (Rattus norvegicus, UniProt P04775)
Test: Electrophysiological in vitro assay, two-electrode voltage clamp, sodium channel blockade
Assay type: cell-based
Conditions: apparent inhibition constant for the inactivated state, from single point inhibition data; holding potential −120 mV, 4 second depolarization; read-out: RBIIA/β1 Ki
Protocol: Electrophysiological Assay:
Electrophysiological Assay was used to measure potencies of compounds of the present invention rBIIa/beta 1 sodium channels expressed in Xenopus oocytes.
Preparation of cRNA encoding cloned rat brain type IIa (rBIIa) and beta 1 (β1): cDNA clones encoding the rat brain beta 1 subunit were cloned in house using standard methods, and mRNA were prepared by standard methods. mRNA encoding rBIIa was provided by Dr. A. Golden (UC Irvine). The mRNAs were diluted and stored at −80° C. in 1 μL aliquots until injection. […]
Electrophysiology: Membrane current responses were recorded in frog Ringer solution containing 115 mM NaCl, 2 mM KCl, 1.8 mM CaCl2, 5 mM HEPES, pH 7.4. […]
Voltage protocols for evoking sodium channel currents: The standard holding potential for whole oocyte clamp was −120 mV. […] Peak currents were measured as the maximum negative current after depolarizing voltage steps. […]
The purpose was to find compounds that are state dependent modifiers of neuronal sodium channels. […] Sodium currents were measured at this test pulse before and after the application of the tested compound. Data was acquired using pClamp 8.0 software and analyzed with clampfit software (Axon instruments). […]

Sequence of rBIIa/beta 1 sodium channels expressed in Xenopus oocytes (P04775 whole entry): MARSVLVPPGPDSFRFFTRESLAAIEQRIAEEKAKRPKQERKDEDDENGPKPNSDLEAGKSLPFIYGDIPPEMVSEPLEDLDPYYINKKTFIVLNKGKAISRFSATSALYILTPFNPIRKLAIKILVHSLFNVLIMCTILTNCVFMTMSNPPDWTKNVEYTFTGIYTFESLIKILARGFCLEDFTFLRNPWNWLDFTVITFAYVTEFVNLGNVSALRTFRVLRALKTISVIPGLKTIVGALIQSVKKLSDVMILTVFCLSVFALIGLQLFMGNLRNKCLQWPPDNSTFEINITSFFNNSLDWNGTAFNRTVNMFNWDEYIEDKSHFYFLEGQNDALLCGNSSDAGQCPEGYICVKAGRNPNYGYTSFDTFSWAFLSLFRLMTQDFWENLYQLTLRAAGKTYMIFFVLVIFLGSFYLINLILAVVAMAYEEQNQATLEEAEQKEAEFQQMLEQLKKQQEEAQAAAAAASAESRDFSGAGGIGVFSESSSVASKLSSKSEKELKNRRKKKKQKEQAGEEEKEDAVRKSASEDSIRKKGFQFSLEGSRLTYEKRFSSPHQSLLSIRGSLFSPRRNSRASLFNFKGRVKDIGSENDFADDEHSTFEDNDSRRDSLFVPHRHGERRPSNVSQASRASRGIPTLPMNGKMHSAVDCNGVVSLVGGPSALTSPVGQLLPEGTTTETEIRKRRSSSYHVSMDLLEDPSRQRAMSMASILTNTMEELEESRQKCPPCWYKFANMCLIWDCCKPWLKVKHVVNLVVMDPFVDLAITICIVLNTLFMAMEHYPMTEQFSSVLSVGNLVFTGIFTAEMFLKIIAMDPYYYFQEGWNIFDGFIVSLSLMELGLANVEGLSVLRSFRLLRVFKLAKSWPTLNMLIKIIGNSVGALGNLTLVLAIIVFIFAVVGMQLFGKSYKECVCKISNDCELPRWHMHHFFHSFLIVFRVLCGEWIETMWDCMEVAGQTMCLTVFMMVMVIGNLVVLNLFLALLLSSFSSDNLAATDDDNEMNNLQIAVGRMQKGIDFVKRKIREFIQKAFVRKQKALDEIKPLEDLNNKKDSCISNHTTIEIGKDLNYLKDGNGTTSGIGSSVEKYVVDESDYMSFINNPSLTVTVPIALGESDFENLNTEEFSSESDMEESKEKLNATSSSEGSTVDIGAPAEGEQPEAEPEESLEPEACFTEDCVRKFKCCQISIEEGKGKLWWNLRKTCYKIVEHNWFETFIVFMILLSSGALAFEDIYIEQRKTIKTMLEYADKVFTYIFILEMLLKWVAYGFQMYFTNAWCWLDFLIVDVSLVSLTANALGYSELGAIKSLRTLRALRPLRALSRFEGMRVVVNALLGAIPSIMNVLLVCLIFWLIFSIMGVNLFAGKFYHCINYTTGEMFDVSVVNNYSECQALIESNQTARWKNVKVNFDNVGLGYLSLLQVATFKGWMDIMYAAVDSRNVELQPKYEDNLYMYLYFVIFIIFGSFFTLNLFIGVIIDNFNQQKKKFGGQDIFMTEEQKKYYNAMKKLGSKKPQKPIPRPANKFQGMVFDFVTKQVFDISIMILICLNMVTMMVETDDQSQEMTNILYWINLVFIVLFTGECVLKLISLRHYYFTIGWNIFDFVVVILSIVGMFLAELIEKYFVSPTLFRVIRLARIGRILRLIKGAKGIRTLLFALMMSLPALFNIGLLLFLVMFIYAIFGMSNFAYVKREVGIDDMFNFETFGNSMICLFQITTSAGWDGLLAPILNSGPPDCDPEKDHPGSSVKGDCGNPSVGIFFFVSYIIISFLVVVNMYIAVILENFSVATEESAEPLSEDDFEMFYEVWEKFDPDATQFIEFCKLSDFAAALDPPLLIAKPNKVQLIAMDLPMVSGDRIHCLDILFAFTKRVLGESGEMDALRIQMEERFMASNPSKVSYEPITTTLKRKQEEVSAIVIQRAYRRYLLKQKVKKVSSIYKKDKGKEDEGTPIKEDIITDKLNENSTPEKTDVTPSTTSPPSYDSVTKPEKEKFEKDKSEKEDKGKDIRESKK
Sequence of rBIIa/beta 1 sodium channels expressed in Xenopus oocytes (Q00954 19-218 partner): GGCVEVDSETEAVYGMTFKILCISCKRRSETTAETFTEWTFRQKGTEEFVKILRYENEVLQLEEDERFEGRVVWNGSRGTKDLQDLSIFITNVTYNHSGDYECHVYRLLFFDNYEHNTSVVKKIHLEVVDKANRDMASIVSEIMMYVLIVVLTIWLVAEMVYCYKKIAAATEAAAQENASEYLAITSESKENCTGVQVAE

| Ki [nM] | SMILES |
| --- | --- |
| 290 | NC(=O)c1cc(N2CCOCC2)cc(-c2ccc(Oc3ccc(F)cc3)cc2)n1 [2-[4-(4-Fluorophenoxy)phenyl]-4-N-morpholinylpyridine-6-carboxamide] |
| 180 | Cc1cc(OCCN2CCCCC2)cc(-c2ccc(Oc3ccc(F)cc3)cc2)n1 [2-[4-(4-Fluorophenoxy)phenyl]-6-methyl-4-[2-(N-piperidinyl)ethoxy]-pyridine] |
